Assay results: patent US20250332173A1, “COMPOUNDS AND METHODS FOR MODULATING NUCLEIC ACID SPLICING” (REMIX THERAPEUTICS INC., priority 2021, published 2025)
pIC50: −log10 of the molar value.

Legend:
HTT = experiment: HiBiT protein abundance assay, HTT HiBiT K562 cell line; assay type: cell-based, human; details: HiBiT K562 cell line, 24 hours, top dose 10 μM; read-out: Effect on protein abundance, HTT (IC50 category)
In short: (§1)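 Tagged-protein abundance measured by split-NanoBiT luminescence after lysis, following 24 h compound exposure (37° C; 10 μM top, 3-fold, 10 points; DMSO ≤0.25%) of HiBiT knock-in K562 cells. Percent response vs DMSO and unmodified-cell controls; 4-parameter logistic interpolation at 50% gave IC50.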

[1] = system: K562 (human chronic myelogenous leukemia) cells; experiment: Cell Titer Glo 2.0 cell viability assay; assay type: cell-based; details: Homo sapiens, K562, 72 h, K562 cells, 72 hours, Cell Titer Glo 2.0; read-out: K562 GI50
SMN2 mRNA = experiment: RT-qPCR splicing assay, SMN2 canonical junction (CJ) mRNA; assay type: cell-based, human; details: Homo sapiens; Table 5 panel; canonical junction qPCR; compound concentration having 50% response in CJ decrease; read-out: SMN2 IC50 (decrease in CJ mRNA levels)
In short: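 Exposure: 24 h, 37 °C, 11-point 3-fold dilutions from 10 uM final, DMSO at or below 0.25%, in A673 or K562 cells. Detection: cell-lysate RT-qPCR of canonical junction mRNA relative to GAPDH, GUSB or PPIA.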

MYB = experiment: HiBiT protein abundance assay, MYB HiBiT K562 cell line; assay type: cell-based, human; details: HiBiT K562 cell line, 24 hours, top dose 10 μM; read-out: Effect on protein abundance, MYB (IC50 category)
In short: as §1

| SMILES | pIC50 (HTT) | GI50 [1] [µM] | pIC50 (SMN2 mRNA) | pIC50 (MYB) |
| --- | --- | --- | --- | --- |
| Cc1cn2cc(-c3ccc4c(=O)n(C5CCN(C)CC5)cnc4c3)nc2c(C)n1 [Compound 302] | 5.00 to 6.00 | 1 to 10 | 6.00 to 7.00 | 5.00 to 6.00 |
| CN1CCN(c2ccc3c(=O)n(-c4ccc5nn(C)cc5c4)cnc3c2)CC1 [Compound 152] | < 5.00 | 1 to 10 | < 5.00 | < 5.00 |
| Cn1cc2cc(-c3cc(F)c4c(=O)n(C5CCNCC5)cnc4c3)cc(F)c2n1 [Compound 314] | 5.00 to 6.00 | 1 to 10 | 6.00 to 7.00 | 5.00 to 6.00 |
| Cc1cn2nc(-c3cc(N(C)C)c4c(=O)n(C5CCNC6(CC6)C5)cnc4c3)cc(C)c2n1 (stereo not drawn) [Compound 345] | < 5.00 | > 10 | > 7.00 | < 5.00 |
| Cc1cn2nc(-c3ccc4c(=O)n(C5CCN(C)CC5)cnc4c3)cc2c(C)n1 [Compound 303] | 5.00 to 6.00 | 1 to 10 | 6.00 to 7.00 | 5.00 to 6.00 |
| Cc1cn2nc(-c3ccc4c(=O)n([C@@H]5C[C@H]6CC[C@@H](C5)N6)ncc4c3)cc(C)c2n1 [Compound 280] | 6.00 to 7.00 | 1 to 10 | > 7.00 | 6.00 to 7.00 |
| Cc1cn2cc(-c3cc(F)c4c(=O)n([C@H]5CCNC[C@@H]5O)cnc4c3)cc(F)c2n1 [Compound 347, 5-fluoro-7-{8-fluoro-2-methylimidazo[1,2-a]pyridin-6-yl}-3-[(3S,4S)-3-hydroxypiperidin-4-yl]quinazolin-4-one] | < 5.00 | > 10 | < 5.00 | 5.00 to 6.00 |
| CNc1cc(-c2cn3cc(C)nc3c(C)n2)cc2ncn(C3CCNCC3)c(=O)c12 [Compound 360, 7-{2,8-dimethylimidazo[1,2-a]pyrazine-6-yl}-5-(methylamino)-3-(piperidin-4-yl)quinazolin-4-one] | < 5.00 | 1 to 10 | 5.00 to 6.00 | < 5.00 |
| Cc1cn2cc(-c3ccc4c(=O)n(C5CCNCC5)cnc4c3)cc(C(F)(F)F)c2n1 [Compound 306] | 6.00 to 7.00 | 0.1 to 1 | > 7.00 | 5.00 to 6.00 |
| CN1CCC(n2cnc3cc(-c4cn[nH]c4)ccc3c2=O)CC1 [Compound 299] | < 5.00 | > 10 | < 5.00 | < 5.00 |
| Cc1cn2nc(-c3ccc4c(=O)n(C5CCNC6(CC6)C5)ncc4c3)cc(C)c2n1 (stereo not drawn) [Compound 274] | > 7.00 | 0.1 to 1 | > 7.00 | > 7.00 |
| Cc1nc2c(F)cc(-c3ccc4c(=O)n(C5CCN(C)CC5)cnc4c3)cc2s1 [Compound 301] | 5.00 to 6.00 | 1 to 10 | 5.00 to 6.00 | 5.00 to 6.00 |
| Cc1cn2nc(-c3cc(F)c4c(=O)n([C@H]5CCNC6(CC6)C5)cnc4c3)cc(C)c2n1 (single isomer, unassigned) [Compound 357] | > 7.00 | < 0.1 | > 7.00 | > 7.00 |
| Cc1cn2cc(-c3ccc4c(=O)n(C5CCNCC5)ccc4c3)cc(F)c2n1 [Compound 276] | > 7.00 | < 0.1 | > 7.00 | > 7.00 |
| CCN1CCC(N2CCc3cc(-c4cc(C)c5nc(C)cn5n4)ccc3C2=O)CC1 [Compound 270] | 5.00 to 6.00 | 1 to 10 | 6.00 to 7.00 | 6.00 to 7.00 |
| Cc1cn2nc(-c3ccc4c(c3)CCN(C3CCNC3)C4=O)cc(C)c2n1 (stereo not drawn) [Compound 269] | < 5.00 | > 10 | 5.00 to 6.00 | 5.00 to 6.00 |
| Cc1cn2cc(-c3ccc4c(=O)n(C5CCNCC5)cnc4c3)ncc2n1 [Compound 297] | 5.00 to 6.00 | 1 to 10 | > 7.00 | 6.00 to 7.00 |
| Cn1cc2cc(-c3cc(F)c4c(=O)n(C5CCNCC5)cnc4c3)c(F)cc2n1 [Compound 315] | 5.00 to 6.00 | 1 to 10 | > 7.00 | 6.00 to 7.00 |
| Cc1cn2cc(-c3cc(F)c4c(=O)n([C@H]5CCN[C@@H](C)C5)cnc4c3)cc(F)c2n1 (relative stereo) [Compound 343, cis-5-fluoro-7-(8-fluoro-2-methylimidazo[1,2-a]pyridin-6-yl)-3-(2-methylpiperidin-4-yl)quinazolin-4(3H)-one] | 6.00 to 7.00 | 0.1 to 1 | > 7.00 | > 7.00 |
| Cc1nc2c(F)cc(-c3ccc4c(=O)n(C5CCNCC5)cnc4c3)cc2s1 [Compound 285] | 5.00 to 6.00 | 0.1 to 1 | > 7.00 | 6.00 to 7.00 |
| Cc1cn2cc(-c3cc(F)c4c(=O)n([C@H]5CCNC[C@@H]5F)cnc4c3)cc(F)c2n1 (relative stereo) [Compound 341, 5-fluoro-7-(8-fluoro-2-methylimidazo[1,2-a]pyridin-6-yl)-3-(trans-3-fluoropiperidin-4-yl)quinazolin-4(3H)-one] | 5.00 to 6.00 | 0.1 to 1 | > 7.00 | 6.00 to 7.00 |
| COc1cc(-c2cc(F)c3c(=O)n(C4CCNCC4)cnc3c2)cnn1 [Compound 320] | < 5.00 | > 10 | 5.00 to 6.00 | < 5.00 |
| Cc1cn2nc(-c3ccc4c(=O)n(C5CCN(C)C5)ncc4c3)cc(C)c2n1 (stereo not drawn) [Compound 271] | 5.00 to 6.00 | 1 to 10 | 6.00 to 7.00 | 5.00 to 6.00 |
| Cc1cn2nc(-c3ccc4c(=O)n([C@H]5CCNC6(CC6)C5)cnc4c3)cc(C)c2n1 [Compound 349, 3-[(7S)-4-azaspiro[2.5]octan-7-yl]-7-{2,8-dimethylimidazo[1,2-b]pyridazin-6-yl}quinazolin-4-one] | 6.00 to 7.00 | 1 to 10 | > 7.00 | 6.00 to 7.00 |
| Cc1cn2nc(-c3ccc4c(=O)n([C@H]5CCN(C)[C@H](C)C5)ncc4c3)cc(C)c2n1 [Compound 278] | > 7.00 | 0.1 to 1 | > 7.00 | > 7.00 |
| Cc1cn2nc(-c3ccc4c(=O)n(C5CCNCC5)cnc4c3)cc2c(C)n1 [Compound 298] | 6.00 to 7.00 | 1 to 10 | > 7.00 | 6.00 to 7.00 |
| Cc1cc(-c2cc(F)c3c(=O)n(C4CCNC5(CC5)C4)cnc3c2)nc2cn(C)nc12 (stereo not drawn) [Compound 361, 3-{4-azaspiro[2.5]octan-7-yl}-7-{2,7-dimethylpyrazolo[4,3-b]pyridin-5-yl}-5-fluoroquinazolin-4-one] | > 7.00 | 0.1 to 1 | > 7.00 | > 7.00 |
| Cc1cn2cc(-c3ccc4c(=O)n(C5CCNCC5)cnc4c3)nc2c(C)n1 [Compound 286] | 5.00 to 6.00 | 0.1 to 1 | 6.00 to 7.00 | 6.00 to 7.00 |
| Cc1cn2cc(-c3cc(F)c4c(=O)n(N5CCNCC5)cnc4c3)cc(F)c2n1 [Compound 340, 5-fluoro-7-{8-fluoro-2-methylimidazo[1,2-a]pyridin-6-yl}-3-(piperazin-1-yl)quinazolin-4-one] | 6.00 to 7.00 | 0.1 to 1 | > 7.00 | > 7.00 |
| Cc1cn2cc(-c3cc(F)c4c(=O)n([C@H]5CCN[C@H](C)C5)cnc4c3)cc(F)c2n1 [Compound 346, trans-5-fluoro-7-(8-fluoro-2-methylimidazo[1,2-a]pyridin-6-yl)-3-(2-methylpiperidin-4-yl)quina-zolin-4(3H)-one] | 6.00 to 7.00 | 0.1 to 1 | > 7.00 | > 7.00 |
